In article PMC11219871, “Epigenetic-based differentiation therapy for Acute Myeloid Leukemia” (Nature Communications, 2024):

Key:
Assay in all cases: Epigenetic panel (BPS Bioscience)
Assay type in all cases: biochemical
PRMT6 = molecular target: T1, PRMT6 (Homo sapiens, UniProt Q96LA8)
T1 construct: purchased BPS Bioscience; Eurofins (HDAC4, 5, 7-11)
Description: (§1) The selectivity of CM-444 and CM-1758 against other epigenetic targets, including histone demethylase (JMJD2A, JMJD2B, JMJD2C, JMJD2D, JMJD2E, JMJD3, JMJD1A, LSD1, Jarid1A, Jarid1B, Jarid1C, FBXL10, FBXL11, JHDM1D, JMJD1B, PHF8, LSD2 and UTX); histone acetyltransferases (GCN5, P300); histone methyltransferases (G9a, GLP, MLL1, SET7/9, SUV39H1, SUV39H2, PRMT1, PRMT3, PRMT4, PRMT5, PRMT6, PRMT8, PRMT9, NSD1, NSD2, EZH1, EZH2, SETDB1, SETD2, SET8, SUV4-20H1, SMYD2, SMYD3, DOT1L, EZH2 (A677G), EZH2 (A677G), EZH2 (A738T), EZH2 (Y641S), EZH2 (P132S), EZH2 (Y641C), EZH2 (Y641F), EZH2 (Y641H), EZH2 (Y641N)); bromodomains (ATAD2B, ATAD2A, BRD1, BRD9, BPTF/FALZ, CeCR2, BRPF3, BRD3 (BD1 + BD2), BAZ2B, WDR9, TAF1 (BD2), TAF1L (BD2), TAF1L (BD1 + BD2), BRD2 (BD1), BRD2 (BD2), BRD2 (BD1 + BD2), BRD3 (BD1), BRD3 (BD2), BRD4 (BD1), BRD4 (BD2), BRD4 (BD1 + BD2), BRDT (BD1), BRDT (BD1 + BD2), CREBBP, SMARCA2A, SMARCA4/BRG1); DNA methyltranferases (DNMT1, DNMT3A/3L and DNMT3B/3L), and sirtuin histone deacetylases (SIRT1, SIRT2, SIRT3, SIRT5 and SIRT6), were determined by BPS Bioscience (http://www.bpsbioscience.com/index.ph). Binding experiments were performed in duplicate at a concentration of 10 μM.

PRMT4 = molecular target: T2, PRMT4 (Homo sapiens, UniProt Q86X55)
T2 construct: purchased BPS Bioscience; Eurofins (HDAC4, 5, 7-11)
Description: as §1

PRMT9 = molecular target: T3, PRMT9 (Homo sapiens, UniProt Q6P2P2); details: for inhibition at 10 µM: read-out: % of inhibition
T3 sequence (Q6P2P2 1-845): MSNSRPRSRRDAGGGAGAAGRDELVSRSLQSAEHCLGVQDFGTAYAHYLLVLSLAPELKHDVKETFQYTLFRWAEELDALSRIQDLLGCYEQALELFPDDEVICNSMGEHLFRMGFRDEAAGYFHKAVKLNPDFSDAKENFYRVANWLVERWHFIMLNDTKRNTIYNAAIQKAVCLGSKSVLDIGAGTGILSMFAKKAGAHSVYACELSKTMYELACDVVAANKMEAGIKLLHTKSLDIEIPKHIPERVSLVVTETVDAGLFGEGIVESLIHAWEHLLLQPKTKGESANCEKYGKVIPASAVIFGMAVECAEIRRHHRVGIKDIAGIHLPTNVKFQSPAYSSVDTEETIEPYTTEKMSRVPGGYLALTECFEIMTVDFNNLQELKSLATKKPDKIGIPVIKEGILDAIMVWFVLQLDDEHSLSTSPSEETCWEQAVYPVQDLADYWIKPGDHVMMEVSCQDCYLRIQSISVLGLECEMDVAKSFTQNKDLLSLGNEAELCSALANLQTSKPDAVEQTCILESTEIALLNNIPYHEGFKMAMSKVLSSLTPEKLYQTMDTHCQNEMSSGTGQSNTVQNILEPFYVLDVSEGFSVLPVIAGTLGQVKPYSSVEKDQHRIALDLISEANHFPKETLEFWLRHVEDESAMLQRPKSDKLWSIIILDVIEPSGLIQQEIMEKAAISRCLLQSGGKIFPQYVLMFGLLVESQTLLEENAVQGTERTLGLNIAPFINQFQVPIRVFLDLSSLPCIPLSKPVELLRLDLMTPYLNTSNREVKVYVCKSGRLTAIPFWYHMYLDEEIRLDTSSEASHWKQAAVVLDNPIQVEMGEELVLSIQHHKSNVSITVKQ
Description: as §1

JMJD1A = molecular target: T4, JMJD1A (Homo sapiens, UniProt Q9Y4C1)
T4 construct: purchased BPS Bioscience; Eurofins (HDAC4, 5, 7-11)
Description: as §1

JMJD1B = molecular target: T5, JMJD1B (Homo sapiens, UniProt Q7LBC6)
T5 construct: purchased BPS Bioscience; Eurofins (HDAC4, 5, 7-11)
Description: as §1

JHDM1D = molecular target: T6, JHDM1D (Homo sapiens, UniProt Q6ZMT4)
T6 construct: purchased BPS Bioscience; Eurofins (HDAC4, 5, 7-11)
Description: as §1

EZH2 (A677G) = molecular target: T7, EZH2 (A677G) (Homo sapiens, UniProt Q15910, A677G)
T7 construct: purchased BPS Bioscience; Eurofins (HDAC4, 5, 7-11)
Description: as §1

EZH2 (Y641S) = molecular target: T8, EZH2 (Y641S) (Homo sapiens, UniProt Q15910, Y641S)
T8 construct: purchased BPS Bioscience; Eurofins (HDAC4, 5, 7-11)
Description: as §1

EZH2 = molecular target: T9, EZH2 (Homo sapiens, UniProt Q15910)
T9 construct: purchased BPS Bioscience; Eurofins (HDAC4, 5, 7-11)
Description: as §1

EZH2 (Y641H) = molecular target: T10, EZH2 (Y641H) (Homo sapiens, UniProt Q15910, Y641H)
T10 construct: purchased BPS Bioscience; Eurofins (HDAC4, 5, 7-11)
Description: as §1

SETDB1 = molecular target: T11, SETDB1 (Homo sapiens, UniProt Q15047)
T11 construct: purchased BPS Bioscience; Eurofins (HDAC4, 5, 7-11)
Description: as §1

SIRT6 = molecular target: T12, SIRT6 (Homo sapiens, UniProt Q8N6T7)
T12 construct: purchased BPS Bioscience; Eurofins (HDAC4, 5, 7-11)
Description: as §1

PRMT5 = molecular target: T13, PRMT5 (Homo sapiens, UniProt O14744)
T13 construct: purchased BPS Bioscience; Eurofins (HDAC4, 5, 7-11)
Description: as §1

PRMT3 = molecular target: T14, PRMT3 (Homo sapiens, UniProt O60678)
T14 construct: purchased BPS Bioscience; Eurofins (HDAC4, 5, 7-11)
Description: as §1

SET7/9 = molecular target: T15, SET7/9 (Homo sapiens, UniProt Q8WTS6)
T15 construct: purchased BPS Bioscience; Eurofins (HDAC4, 5, 7-11)
T15 sequence (Q8WTS6 whole entry): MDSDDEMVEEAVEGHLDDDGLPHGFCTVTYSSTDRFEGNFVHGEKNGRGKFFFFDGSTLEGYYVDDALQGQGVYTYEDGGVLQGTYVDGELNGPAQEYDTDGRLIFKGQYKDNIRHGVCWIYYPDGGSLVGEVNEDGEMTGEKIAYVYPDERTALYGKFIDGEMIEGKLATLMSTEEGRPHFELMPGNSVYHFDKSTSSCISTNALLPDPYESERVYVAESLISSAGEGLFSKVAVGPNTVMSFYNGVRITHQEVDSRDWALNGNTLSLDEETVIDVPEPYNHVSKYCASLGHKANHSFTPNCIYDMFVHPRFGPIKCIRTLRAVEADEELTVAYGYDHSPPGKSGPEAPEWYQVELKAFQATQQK
Description: as §1

UTX = molecular target: T16, UTX (Homo sapiens, UniProt O15550)
T16 construct: purchased BPS Bioscience (contracted assay service)
T16 sequence (O15550 whole entry): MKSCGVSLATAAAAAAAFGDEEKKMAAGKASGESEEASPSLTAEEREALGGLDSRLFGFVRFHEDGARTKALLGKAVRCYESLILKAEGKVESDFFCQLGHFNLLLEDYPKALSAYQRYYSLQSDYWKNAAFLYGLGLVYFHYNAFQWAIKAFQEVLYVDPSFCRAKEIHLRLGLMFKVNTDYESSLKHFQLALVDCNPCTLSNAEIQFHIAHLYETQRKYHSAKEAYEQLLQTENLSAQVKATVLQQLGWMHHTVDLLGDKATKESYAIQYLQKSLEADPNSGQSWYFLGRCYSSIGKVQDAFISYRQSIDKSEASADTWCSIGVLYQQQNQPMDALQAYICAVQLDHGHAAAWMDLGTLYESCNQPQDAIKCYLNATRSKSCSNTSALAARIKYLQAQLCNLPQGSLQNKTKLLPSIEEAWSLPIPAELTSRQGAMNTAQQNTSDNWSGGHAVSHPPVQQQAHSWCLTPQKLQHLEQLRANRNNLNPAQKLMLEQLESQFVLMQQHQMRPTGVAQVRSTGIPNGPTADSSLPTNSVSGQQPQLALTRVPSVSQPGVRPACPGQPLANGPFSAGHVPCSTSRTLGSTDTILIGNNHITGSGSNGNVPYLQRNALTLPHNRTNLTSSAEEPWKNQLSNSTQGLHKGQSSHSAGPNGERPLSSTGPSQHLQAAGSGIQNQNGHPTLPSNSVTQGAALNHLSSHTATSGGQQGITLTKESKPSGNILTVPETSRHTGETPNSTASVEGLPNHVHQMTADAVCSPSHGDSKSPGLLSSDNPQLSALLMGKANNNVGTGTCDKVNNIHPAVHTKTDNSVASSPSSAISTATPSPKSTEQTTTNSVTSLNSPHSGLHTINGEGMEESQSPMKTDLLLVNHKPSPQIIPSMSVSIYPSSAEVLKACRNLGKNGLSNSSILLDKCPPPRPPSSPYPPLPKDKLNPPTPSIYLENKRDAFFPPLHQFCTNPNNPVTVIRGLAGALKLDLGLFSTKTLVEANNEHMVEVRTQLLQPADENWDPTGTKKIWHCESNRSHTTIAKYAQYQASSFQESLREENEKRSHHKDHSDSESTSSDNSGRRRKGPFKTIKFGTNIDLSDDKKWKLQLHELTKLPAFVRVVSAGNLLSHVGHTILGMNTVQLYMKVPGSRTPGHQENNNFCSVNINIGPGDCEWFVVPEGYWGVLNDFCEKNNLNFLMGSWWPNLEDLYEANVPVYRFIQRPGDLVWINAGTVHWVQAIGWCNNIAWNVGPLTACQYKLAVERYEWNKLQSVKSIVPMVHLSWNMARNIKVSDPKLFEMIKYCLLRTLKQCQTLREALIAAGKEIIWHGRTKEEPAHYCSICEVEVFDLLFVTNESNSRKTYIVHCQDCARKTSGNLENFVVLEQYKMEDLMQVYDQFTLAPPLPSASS
Description: as §1

EZH2 (Y641F) = molecular target: T17, EZH2 (Y641F) (Homo sapiens, UniProt Q15910, Y641F)
T17 construct: purchased BPS Bioscience; Eurofins (HDAC4, 5, 7-11)
Description: as §1

JMJD2E = molecular target: T18, JMJD2E (Homo sapiens, UniProt B2RXH2)
T18 construct: purchased BPS Bioscience; Eurofins (HDAC4, 5, 7-11)
Description: as §1

NSD1 = molecular target: T19, NSD1 (Homo sapiens, UniProt Q96L73)
T19 construct: purchased BPS Bioscience; Eurofins (HDAC4, 5, 7-11)
T19 sequence (Q96L73 whole entry): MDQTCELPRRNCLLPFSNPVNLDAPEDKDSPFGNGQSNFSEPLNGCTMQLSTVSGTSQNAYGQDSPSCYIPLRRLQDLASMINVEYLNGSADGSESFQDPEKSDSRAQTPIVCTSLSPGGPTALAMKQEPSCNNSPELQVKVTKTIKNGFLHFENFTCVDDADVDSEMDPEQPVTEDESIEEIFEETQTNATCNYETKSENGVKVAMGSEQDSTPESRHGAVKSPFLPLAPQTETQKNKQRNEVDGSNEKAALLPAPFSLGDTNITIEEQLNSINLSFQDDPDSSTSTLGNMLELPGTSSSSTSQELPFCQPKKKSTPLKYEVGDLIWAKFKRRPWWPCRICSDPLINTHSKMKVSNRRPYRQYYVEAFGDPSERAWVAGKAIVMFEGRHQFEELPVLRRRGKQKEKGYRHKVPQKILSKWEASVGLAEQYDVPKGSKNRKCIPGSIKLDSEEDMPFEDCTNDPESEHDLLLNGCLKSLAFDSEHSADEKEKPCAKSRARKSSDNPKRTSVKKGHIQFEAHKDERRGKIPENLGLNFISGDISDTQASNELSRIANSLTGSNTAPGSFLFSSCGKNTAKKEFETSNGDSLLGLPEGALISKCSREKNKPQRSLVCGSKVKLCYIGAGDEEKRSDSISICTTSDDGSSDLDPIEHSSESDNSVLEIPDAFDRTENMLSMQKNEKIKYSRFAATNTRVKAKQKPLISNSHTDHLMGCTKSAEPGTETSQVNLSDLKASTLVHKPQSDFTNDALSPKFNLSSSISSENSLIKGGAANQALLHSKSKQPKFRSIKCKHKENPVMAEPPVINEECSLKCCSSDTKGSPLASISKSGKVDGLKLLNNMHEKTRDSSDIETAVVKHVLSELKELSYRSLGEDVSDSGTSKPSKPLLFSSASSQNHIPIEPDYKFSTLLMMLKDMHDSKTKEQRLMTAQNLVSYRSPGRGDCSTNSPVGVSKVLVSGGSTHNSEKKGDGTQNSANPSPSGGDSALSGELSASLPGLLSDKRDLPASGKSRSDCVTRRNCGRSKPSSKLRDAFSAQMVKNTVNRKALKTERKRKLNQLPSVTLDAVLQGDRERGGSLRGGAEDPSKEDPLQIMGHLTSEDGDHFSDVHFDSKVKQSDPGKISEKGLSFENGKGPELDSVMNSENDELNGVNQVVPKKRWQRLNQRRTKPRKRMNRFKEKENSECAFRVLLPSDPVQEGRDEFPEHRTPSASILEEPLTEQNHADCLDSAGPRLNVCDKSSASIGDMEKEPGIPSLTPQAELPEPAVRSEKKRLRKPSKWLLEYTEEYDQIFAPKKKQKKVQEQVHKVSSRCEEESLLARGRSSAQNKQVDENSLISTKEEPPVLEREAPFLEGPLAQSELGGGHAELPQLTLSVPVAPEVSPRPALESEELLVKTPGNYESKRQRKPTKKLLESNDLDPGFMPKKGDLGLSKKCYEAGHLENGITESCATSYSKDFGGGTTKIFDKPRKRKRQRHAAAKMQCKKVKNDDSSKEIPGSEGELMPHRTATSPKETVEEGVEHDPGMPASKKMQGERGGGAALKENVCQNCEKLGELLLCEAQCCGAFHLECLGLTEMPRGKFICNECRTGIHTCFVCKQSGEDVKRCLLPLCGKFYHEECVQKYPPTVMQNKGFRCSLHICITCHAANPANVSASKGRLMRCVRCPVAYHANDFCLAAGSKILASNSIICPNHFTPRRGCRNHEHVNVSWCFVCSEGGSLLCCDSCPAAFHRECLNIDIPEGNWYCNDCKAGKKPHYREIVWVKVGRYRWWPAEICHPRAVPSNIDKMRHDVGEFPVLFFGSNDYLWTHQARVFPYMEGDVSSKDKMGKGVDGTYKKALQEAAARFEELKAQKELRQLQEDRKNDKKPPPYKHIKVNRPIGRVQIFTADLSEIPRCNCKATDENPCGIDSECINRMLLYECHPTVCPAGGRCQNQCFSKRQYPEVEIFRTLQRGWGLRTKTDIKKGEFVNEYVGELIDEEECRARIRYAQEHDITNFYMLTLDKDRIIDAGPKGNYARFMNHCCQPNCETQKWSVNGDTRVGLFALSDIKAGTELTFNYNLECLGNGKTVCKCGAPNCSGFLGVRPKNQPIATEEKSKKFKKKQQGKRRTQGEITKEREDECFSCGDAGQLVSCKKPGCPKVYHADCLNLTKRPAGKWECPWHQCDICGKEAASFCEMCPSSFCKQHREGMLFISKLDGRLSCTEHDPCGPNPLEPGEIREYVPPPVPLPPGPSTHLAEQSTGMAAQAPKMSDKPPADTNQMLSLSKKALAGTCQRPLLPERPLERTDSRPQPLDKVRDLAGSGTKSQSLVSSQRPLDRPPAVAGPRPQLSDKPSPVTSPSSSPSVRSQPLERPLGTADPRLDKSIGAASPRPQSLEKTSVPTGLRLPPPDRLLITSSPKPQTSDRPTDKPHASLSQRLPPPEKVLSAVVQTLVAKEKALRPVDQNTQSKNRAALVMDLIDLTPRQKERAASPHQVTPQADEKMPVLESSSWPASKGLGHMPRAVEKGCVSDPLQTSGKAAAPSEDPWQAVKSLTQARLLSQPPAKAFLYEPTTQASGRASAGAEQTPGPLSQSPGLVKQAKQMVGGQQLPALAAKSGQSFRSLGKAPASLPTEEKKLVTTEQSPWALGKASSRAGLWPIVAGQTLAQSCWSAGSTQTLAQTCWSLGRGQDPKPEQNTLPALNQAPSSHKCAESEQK
Description: as §1

T1 sequence (Q96LA8 whole entry): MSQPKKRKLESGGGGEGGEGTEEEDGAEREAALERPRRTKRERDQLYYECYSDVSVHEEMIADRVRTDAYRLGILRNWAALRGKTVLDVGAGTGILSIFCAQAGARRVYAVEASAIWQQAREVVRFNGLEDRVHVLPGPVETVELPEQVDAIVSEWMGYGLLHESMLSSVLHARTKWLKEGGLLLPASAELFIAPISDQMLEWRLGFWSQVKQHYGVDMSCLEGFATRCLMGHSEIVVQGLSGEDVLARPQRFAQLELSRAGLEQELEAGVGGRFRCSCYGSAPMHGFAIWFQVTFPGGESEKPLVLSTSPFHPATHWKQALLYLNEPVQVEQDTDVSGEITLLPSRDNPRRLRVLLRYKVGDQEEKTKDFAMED

Compound | inhibition at 10 µM (PRMT6) [%] | inhibition at 10 µM (PRMT4) [%] | IC50 (PRMT9) [µM] | inhibition at 10 µM (PRMT9) [%] | inhibition at 10 µM (JMJD1A) [%] | inhibition at 10 µM (JMJD1B) [%] | inhibition at 10 µM (JHDM1D) [%] | inhibition at 10 µM (EZH2 (A677G)) [%] | inhibition at 10 µM (EZH2 (Y641S)) [%] | inhibition at 10 µM (EZH2) [%] | inhibition at 10 µM (EZH2 (Y641H)) [%] | inhibition at 10 µM (SETDB1) [%] | inhibition at 10 µM (SIRT6) [%] | inhibition at 10 µM (PRMT5) [%] | inhibition at 10 µM (PRMT3) [%] | inhibition at 10 µM (SET7/9) [%] | IC50 (UTX) [µM] | inhibition at 10 µM (UTX) [%] | inhibition at 10 µM (EZH2 (Y641F)) [%] | inhibition at 10 µM (JMJD2E) [%] | other results
COc1cc2nc(-c3ccc(C)o3)cc(NCC3CCN(c4ncc(C(=O)NO)cn4)CC3)c2cc1OC [CM-444, 2-[4-[[[6,7-dimethoxy-2-(5-methyl-2-furyl)-4-quinolyl]amino]methyl]-1-piperidyl]pyrimidine-5-carbohydroxamic acid] | 0 | 0 | 19.2 | 76 | 3 | 6 | 4 | 0 | 4 | 0 | 0 | 0 | 15 | 0 | 0 | 0 | 1.5 | 95 | 0 | 5 | inhibition at 10 µM (NSD1): 14%
COc1cc2nc(-c3cc(C)oc3C)cc(NCC3CCN(c4ncc(C(=O)NO)cn4)CC3)c2cc1OC [CM-1758, 2-[4-[[[2-(2,5-dimethyl-3-furyl)-6,7-dimethoxy-4-quinolyl]amino]methyl] -1-piperidyl]pyrimidine-5-carbohydroxamic acid] | 0 | 0 | 22.7 | 52 | 12 | 11 | 37 | 5 | 24 | 0 | 0 | 3 | 4 | 7 | 0 | 19 | 2.2 | 91 | 1 | 1 | inhibition at 10 µM (NSD1): 10%
